Measurements taken from ChEMBL document CHEMBL5338769, “Discovery of Norisoboldine Analogue III11 as a Novel and Potent Aryl Hydrocarbon Receptor Agonist for the Treatment of Ulcerative Colitis” (J Med Chem, 2023).
Calls of active or inactive are those of the source. The calls are words filed in the database; no cut-off is given here.

Legend:
[1] = Induction of cell differentiation in C57BL/6 mouse naive regulatory T cells assessed as increase in IL-10 mRNA level by measuring fold change at 3 uM incubated for 72 hrs by qRT-PCR analysis; type: functional
Mus musculus [2] = experiment: Anti-colitis activity against DSS-induced ulcerative colitis C57BL/6 mouse model assessed as decrease in colon MPO activity at 40 mg/kg, po administered once a day for 10 days; type: functional, organism-based; details: time 10.0 day
[3] = biological target: T1, Aryl hydrocarbon receptor (Mus musculus, UniProt P30561); experiment: Activation of AhR transcription in C57BL/6 mouse naive T cells assessed as increase in CYP1A1 mRNA expression by measuring fold change at 3 uM by qRT-PCR analysis relative to control; type: cell-based; details: T-cell, read-out: FC
T1 sequence (P30561 whole entry): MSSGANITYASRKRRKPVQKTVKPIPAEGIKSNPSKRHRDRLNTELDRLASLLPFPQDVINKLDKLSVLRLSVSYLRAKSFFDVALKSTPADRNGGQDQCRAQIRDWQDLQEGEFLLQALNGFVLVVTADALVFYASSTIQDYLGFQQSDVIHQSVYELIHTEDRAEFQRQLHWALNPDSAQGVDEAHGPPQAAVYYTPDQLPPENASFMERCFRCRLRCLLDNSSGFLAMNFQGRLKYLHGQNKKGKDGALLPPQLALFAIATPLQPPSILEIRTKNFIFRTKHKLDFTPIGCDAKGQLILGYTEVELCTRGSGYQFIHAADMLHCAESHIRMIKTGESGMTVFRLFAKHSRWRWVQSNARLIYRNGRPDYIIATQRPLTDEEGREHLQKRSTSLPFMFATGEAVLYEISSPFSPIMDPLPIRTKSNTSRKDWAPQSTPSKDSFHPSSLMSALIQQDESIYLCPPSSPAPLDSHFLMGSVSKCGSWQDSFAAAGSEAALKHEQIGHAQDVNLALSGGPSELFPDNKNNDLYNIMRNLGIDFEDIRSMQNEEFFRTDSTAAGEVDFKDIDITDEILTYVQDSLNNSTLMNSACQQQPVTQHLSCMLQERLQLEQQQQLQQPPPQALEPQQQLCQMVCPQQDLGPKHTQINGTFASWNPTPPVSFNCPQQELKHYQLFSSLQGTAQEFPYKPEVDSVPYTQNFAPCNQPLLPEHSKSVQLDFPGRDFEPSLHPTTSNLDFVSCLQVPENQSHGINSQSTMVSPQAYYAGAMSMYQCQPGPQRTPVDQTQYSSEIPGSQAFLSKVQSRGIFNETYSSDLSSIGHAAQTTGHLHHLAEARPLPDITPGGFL

Mus musculus [4] = experiment: In vivo activation of AhR in C57BL/6 mouse assessed as increase in CYP1A1 mRNA expression at 40 mg/kg, po administered once a day for 10 days by qRT-PCR analysis; type: functional, organism-based; details: time 10.0 day
Mus musculus [5] = experiment: Anti-colitis activity in DSS-induced ulcerative colitis C57BL/6 mouse model assessed as CD4+CD25+Foxp3+ Treg cell percentage in spleen at 40 mg/kg, po administered once a day for 10 days by flow cytometric analysis (reference value: 3.3%); type: functional; details: time 10 day
Mus musculus [6] = experiment: Anti-colitis activity in DSS-induced ulcerative colitis C57BL/6 mouse model assessed as increase in CD4+CD25+Foxp3+ Treg cell ratio in mesenteric lymph nodes at 40 mg/kg, po administered once a day for 10 days by flow cytometric analysis (reference value: 4.5 %); type: functional; details: time 10 day
[7] = Induction of cell differentiation in C57BL/6 mouse naive regulatory T cells assessed as increase in cell frequency at 3 uM incubated for 72 hrs by flow cytometric analysis (reference value: 24.9%); type: functional
[8] = Induction of cell differentiation in C57BL/6 mouse naive regulatory T cells assessed as increase in […] mRNA level by measuring fold change at 3 uM incubated for 72 hrs by qRT-PCR analysis; type: functional
Mus musculus [9] = experiment: In vivo activation of AhR in C57BL/6 mouse assessed as increase in CYP1A1 mRNA expression at 100 mg/kg, po administered once a day for 10 days by qRT-PCR analysis; type: functional, organism-based; details: time 10.0 day
Mus musculus [10] = experiment: Anti-colitis activity in DSS-induced ulcerative colitis C57BL/6 mouse model assessed as CD4+CD25+Foxp3+ Treg cell percentage in mesenteric lymph nodes at 100 mg/kg, po administered once a day for 10 days by flow cytometric analysis (reference value: 4.5 %); type: functional; details: time 10 day
Mus musculus [11] = experiment: Anti-colitis activity in DSS-induced ulcerative colitis C57BL/6 mouse model assessed as CD4+CD25+Foxp3+ Treg cell percentage in spleen at 100 mg/kg, po administered once a day for 10 days by flow cytometric analysis (reference value: 3.3%); type: functional; details: time 10 day

| SMILES | fold change (FC) [1] | Activity (Mus musculus [2]) | fold induction at 3 µM [3] | Activity (Mus musculus [4]) | Activity (Mus musculus [5]) [%] | Activity (Mus musculus [6]) [%] | Activity [7] [%] | fold change (FC) [8] | Activity (Mus musculus [9]) | Activity (Mus musculus [10]) [%] | Activity (Mus musculus [11]) [%] |
| --- | --- | --- | --- | --- | --- | --- | --- | --- | --- | --- | --- |
| c1ccc2c(Cc3c[nH]c4ccccc34)c[nH]c2c1 [ARUNDINE] | 2 | Active | 1.9 | Active | 2.7 | 6.8 | 34.3 | 2.1 | – | – | – |
| Nc1ccc(O)c(C(=O)O)c1 [MESALAMINE] | – | – | – | – | – | – | – | – | Active | 4.4 | 2.6 |
